How the values were obtained:
Assay in all cases: relative viability vs DMSO control (72 h) (fraction); higher = more viable cells
HS729 = tested on: HS729
Outline: (§1)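 Relative viability was measured with ATPLite and expressed as percent growth, averaged across up to triplicate wells. Sarcoma cell lines had been seeded in 384-well plates to reach 80–90% confluence, dosed after 24 h, and incubated 72 h at 37 °C, 5% CO2. All data were rescaled on a scale where 1 is full and 0 is none.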

SK-LMS-1 = tested on: SK-LMS-1
Outline: as §1

MES-SA = tested on: MES-SA
Outline: as §1

G401 = tested on: G401
Outline: as §1

SW872 = tested on: SW872
Outline: as §1

A204 = tested on: A204
Outline: as §1

SYO-1 = tested on: SYO-1
Outline: as §1

KHOS-NP = tested on: KHOS-NP
Outline: as §1

SW684 = tested on: SW684
Outline: as §1

VA-ES-BJ = tested on: VA-ES-BJ
Outline: as §1

SW1353 = tested on: SW1353
Outline: as §1

HT1080 = tested on: HT1080
Outline: as §1

NC(=O)c1cccc2cn(-c3ccc([C@@H]4CCCNC4)cc3)nc12 [Niraparib]
Settings	relative viability
A204, 0.00017 µM	1.07
A204, 0.00051 µM	1.09
A204, 0.00152 µM	1.05
A204, 0.00457 µM	1.07
A204, 0.01372 µM	1.05
A204, 0.04115 µM	1.07
A204, 0.1235 µM	1.064
A204, 0.3704 µM	0.998
A204, 1.111 µM	0.964
A204, 3.333 µM	0.885
A204, 10 µM	0.691
G401, 0.00017 µM	0.962
G401, 0.00051 µM	0.988
G401, 0.00152 µM	1.01
G401, 0.00457 µM	0.9908
G401, 0.01372 µM	0.993
G401, 0.04115 µM	1.03
G401, 0.1235 µM	0.967
G401, 0.3704 µM	0.97
G401, 1.111 µM	0.93
G401, 3.333 µM	0.929
G401, 10 µM	0.852
HS729, 0.00017 µM	0.876
HS729, 0.00051 µM	0.894
HS729, 0.00152 µM	0.893
HS729, 0.00457 µM	0.89
HS729, 0.01372 µM	0.886
HS729, 0.04115 µM	0.869
HS729, 0.1235 µM	0.917
HS729, 0.3704 µM	0.868
HS729, 1.111 µM	0.884
HS729, 3.333 µM	0.877
HS729, 10 µM	0.801
HT1080, 0.00017 µM	1.06
HT1080, 0.00051 µM	1.05
HT1080, 0.00152 µM	1.01
HT1080, 0.00457 µM	1.04
HT1080, 0.01372 µM	1.01
HT1080, 0.04115 µM	1.01
HT1080, 0.1235 µM	1.041
HT1080, 0.3704 µM	1.02
HT1080, 1.111 µM	1.09
HT1080, 3.333 µM	1.09
HT1080, 10 µM	1.03
KHOS-NP, 0.00017 µM	1.05
KHOS-NP, 0.00051 µM	1.04
KHOS-NP, 0.00152 µM	1.04
KHOS-NP, 0.00457 µM	1.06
KHOS-NP, 0.01372 µM	1.045
KHOS-NP, 0.04115 µM	1.04
KHOS-NP, 0.1235 µM	1.06
KHOS-NP, 0.3704 µM	1.08
KHOS-NP, 1.111 µM	1.05
KHOS-NP, 3.333 µM	1.079
KHOS-NP, 10 µM	1.04
MES-SA, 0.00017 µM	0.9156
MES-SA, 0.00051 µM	0.898
MES-SA, 0.00152 µM	0.868
MES-SA, 0.00457 µM	0.918
MES-SA, 0.01372 µM	0.882
MES-SA, 0.04115 µM	0.893
MES-SA, 0.1235 µM	0.876
MES-SA, 0.3704 µM	0.8654
MES-SA, 1.111 µM	0.824
MES-SA, 3.333 µM	0.774
MES-SA, 10 µM	0.598
SK-LMS-1, 0.00017 µM	1.08
SK-LMS-1, 0.00051 µM	1.12
SK-LMS-1, 0.00152 µM	1.1
SK-LMS-1, 0.00457 µM	1.12
SK-LMS-1, 0.01372 µM	1.12
SK-LMS-1, 0.04115 µM	1.13
SK-LMS-1, 0.1235 µM	1.12
SK-LMS-1, 0.3704 µM	1.1
SK-LMS-1, 1.111 µM	1.09
SK-LMS-1, 3.333 µM	1.03
SK-LMS-1, 10 µM	0.966
SW684, 0.00017 µM	1.14
SW684, 0.00051 µM	1.15
SW684, 0.00152 µM	1.17
SW684, 0.00457 µM	1.13
SW684, 0.01372 µM	1.09
SW684, 0.04115 µM	1.13
SW684, 0.1235 µM	1.14
SW684, 0.3704 µM	1.1
SW684, 1.111 µM	1.13
SW684, 3.333 µM	1.17
SW684, 10 µM	1.09
SW872, 0.00017 µM	1.02
SW872, 0.00051 µM	1.04
SW872, 0.00152 µM	1.03
SW872, 0.00457 µM	1.04
SW872, 0.01372 µM	0.997
SW872, 0.04115 µM	1.01
SW872, 0.1235 µM	1.05
SW872, 0.3704 µM	1.07
SW872, 1.111 µM	1.06
SW872, 3.333 µM	1.07
SW872, 10 µM	1.02
SW1353, 0.00017 µM	0.976
SW1353, 0.00051 µM	0.981
SW1353, 0.00152 µM	0.969
SW1353, 0.00457 µM	0.958
SW1353, 0.01372 µM	0.927
SW1353, 0.04115 µM	0.965
SW1353, 0.1235 µM	0.956
SW1353, 0.3704 µM	0.964
SW1353, 1.111 µM	0.933
SW1353, 3.333 µM	0.942
SW1353, 10 µM	0.904
SYO-1, 0.00017 µM	0.951
SYO-1, 0.00051 µM	0.965
SYO-1, 0.00152 µM	0.95
SYO-1, 0.00457 µM	0.946
SYO-1, 0.01372 µM	0.927
SYO-1, 0.04115 µM	0.861
SYO-1, 0.1235 µM	0.832
SYO-1, 0.3704 µM	0.765
SYO-1, 1.111 µM	0.664
SYO-1, 3.333 µM	0.522
SYO-1, 10 µM	0.29
VA-ES-BJ, 0.00017 µM	0.985
VA-ES-BJ, 0.00051 µM	0.995
VA-ES-BJ, 0.00152 µM	0.976
VA-ES-BJ, 0.00457 µM	0.96
VA-ES-BJ, 0.01372 µM	0.99
VA-ES-BJ, 0.04115 µM	1.01
VA-ES-BJ, 0.1235 µM	0.983
VA-ES-BJ, 0.3704 µM	0.947
VA-ES-BJ, 1.111 µM	0.915
VA-ES-BJ, 3.333 µM	0.873
VA-ES-BJ, 10 µM	0.708

— the supplement of paper PMC10883282
